This note sets out measurements from patent publication US20020028938A1, “Prostaglandin endoperoxide H synthase biosynthesis inhibitors” (priority 1997, published 2002).

The target of data set [1] is T1, human amnionic whole cell cyclooxygenase-2 (WISH cells) (Homo sapiens, UniProt P35354).
T1 construct: endogenous in cells; host or cells: human amnionic WISH cells, induced with IL-1beta
T1 sequence (P35354 18-604): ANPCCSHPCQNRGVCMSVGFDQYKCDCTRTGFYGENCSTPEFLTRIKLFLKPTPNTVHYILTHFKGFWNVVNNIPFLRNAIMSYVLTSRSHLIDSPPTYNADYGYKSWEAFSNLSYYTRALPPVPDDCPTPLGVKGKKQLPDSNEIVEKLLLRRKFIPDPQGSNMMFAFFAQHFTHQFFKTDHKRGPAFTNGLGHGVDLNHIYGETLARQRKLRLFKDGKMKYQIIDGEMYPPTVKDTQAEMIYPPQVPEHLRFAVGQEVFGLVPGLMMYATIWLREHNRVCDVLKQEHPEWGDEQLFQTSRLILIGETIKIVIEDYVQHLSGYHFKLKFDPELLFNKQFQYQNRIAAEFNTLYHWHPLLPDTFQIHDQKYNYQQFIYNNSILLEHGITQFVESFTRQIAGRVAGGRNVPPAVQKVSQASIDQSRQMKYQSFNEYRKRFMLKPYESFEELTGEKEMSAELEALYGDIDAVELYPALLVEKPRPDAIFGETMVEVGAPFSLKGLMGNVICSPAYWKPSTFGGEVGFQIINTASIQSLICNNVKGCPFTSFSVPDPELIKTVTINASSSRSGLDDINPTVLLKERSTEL
Briefly: IL-1β induced PGE2 production in WISH cells. The data set is classed as cell-based. The conditions noted are these: for pIC50: read-out: Wish IC50 (parenthetical value); for inhibition at 0.01 µM / inhibition at 0.1 µM / inhibition at 1 µM: read-out: Wish % Inhib. at Dose. As for the experimental part:
EIA reagents for prostaglandin determination were purchased from Perseptive Diagnostics, (Cambridge, Mass.). Prostaglandin E2 (PGE2) levels in lavage fluids were determined after the samples were dried under nitrogen and reconstituted with assay buffer. PGE2 levels in enzyme assays or cell culture media were measured against standards prepared in the same milieu. The immunoassays were conducted as recommended by the manufacturer. The EIA was conducted in 96 well microtiter plates (Nunc Roskilde, Denmark) and optical density was measured using a microplate reader (Vmax, Molecular Devices Corp., Menlo Park, Calif.).
Human amnionic WISH cells were grown to 80% confluence in 48 well plates. Following removal of the growth medium and two washings with Geys Balanced Salt Solutn, 5 ng IL-1β /ml (UBI, Lake Placid, N.Y.) was added to the cells with or without test compound in DMSO (0.01% v/v) in Neuman-Tytell Serumless Medium (GIBCO, Grand Island, N.Y.).

The target in data set [2] is T2, recombinant human Cox-2 (r-hu Cox-2) (Homo sapiens, UniProt P35354).
T2 construct: made in house; host or cells: baculovirus/Sf9 insect cells (microsomes)
T2 sequence (P35354 18-604): T1 sequence (P35354 18-604)
Briefly: Recombinant human PGHS-2 enzyme assay (RHUCX2). It is filed as biochemical. The conditions noted are these: for pIC50: read-out: RHUCX2 IC50 (parenthetical value). In outline:
(§1)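 Recombinant enzyme reaction ran 2.5 minutes at room temperature, then was quenched with HCl and neutralized with NaOH. PGE2 formed with and without drug was quantified by EIA against standards in the same milieu. Percent inhibition versus control mean; IC50 by linear regression.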

Data set [3] has as its target T3, recombinant human Cox-1 (r-hu Cox1) (Homo sapiens, UniProt P23219).
T3 construct: made in house; host or cells: baculovirus/Sf9 insect cells (microsomes)
Briefly: Recombinant human PGHS-1 enzyme assay (RHUCX1). It is filed as biochemical. In outline:
as §1

[4] abbreviates: 100 μM, read-out: RHUCX1 % Inh. at Dose.
[5] abbreviates: read-out: RHUCX2 % Inh. at Dose.

pIC50: −log10 of the molar value.

T3 sequence (P23219 24-599): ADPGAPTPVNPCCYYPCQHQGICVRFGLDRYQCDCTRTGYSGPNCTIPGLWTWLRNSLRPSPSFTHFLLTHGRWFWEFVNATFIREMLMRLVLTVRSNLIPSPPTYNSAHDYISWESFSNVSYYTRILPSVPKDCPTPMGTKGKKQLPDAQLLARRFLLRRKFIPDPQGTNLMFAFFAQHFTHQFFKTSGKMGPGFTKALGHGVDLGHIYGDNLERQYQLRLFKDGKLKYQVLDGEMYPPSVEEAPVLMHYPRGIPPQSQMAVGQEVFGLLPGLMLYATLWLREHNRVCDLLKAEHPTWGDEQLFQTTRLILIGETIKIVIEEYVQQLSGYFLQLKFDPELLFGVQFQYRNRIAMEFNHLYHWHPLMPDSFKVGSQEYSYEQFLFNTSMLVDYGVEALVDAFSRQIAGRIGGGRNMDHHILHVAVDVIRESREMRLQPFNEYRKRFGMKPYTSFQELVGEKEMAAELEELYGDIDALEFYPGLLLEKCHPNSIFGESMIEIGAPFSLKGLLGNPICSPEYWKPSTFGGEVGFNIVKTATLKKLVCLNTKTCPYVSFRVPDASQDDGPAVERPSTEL

As a reminder, the pIC50 is −log10 of the IC50, conventionally taken in molar units. For `C=Cc1ccc(-c2c(-c3ccc(S(C)(=O)=O)cc3)cnn(Cc3ccccc3)c2=O)cc1` [Example 322, 2-Benzyl-4-(4-vinylphenyl)-5-[4-(methylsulfonyl)phenyl]-3(2H)-pridazinone], the figures for the pIC50 in data set [1] and in data set [2] were 7.59 and 7.24, respectively. For the same compound, the inhibition at 10 µM in data set [3] (10 μM, read-out: RHUCX1 % Inh. at Dose) is 54%. Also, the inhibition at 100 µM in data set [3] (setting [4]) is 39%.

For orientation: melting point means the temperature, or range, at which the solid turns liquid. For the compound `CS(=O)(=O)c1ccc(-c2cnn(C3C4CC5CC(C4)CC3C5)c(=O)c2-c2ccc(F)cc2)cc1` (stereo not drawn) [Example 132, 2-(2-Adamantyl)-4-(4-fluorophenyl)-5-[4-(methylsulfonyl)phenyl]-3(2H)-pyridazinone], the melting point lay in the range of 195 to 197 °C. Further, the inhibition at 0.01 µM in data set [1] (0.01 μM) was determined as 36%. Moreover, the inhibition at 0.1 µM in data set [1] came to 100%. In data set [2] (setting [5]), the inhibition at 0.1 µM came to 43% and the inhibition at 1 µM was 88%. Further, in data set [3] (1 μM, read-out: RHUCX1 % Inh. at Dose), the inhibition at 1 µM came out at 93%.

`CC(C)COc1c(-c2ccc(S(C)(=O)=O)cc2)cnn(CC(F)(F)F)c1=O` [Example 278, 2-(2,2,2-Trifluoroethyl)-4-(2-methylpropoxy)-5-[4-(methylsulfonyl)phenyl]-3(2H)-pyridazinone] came in with a melting point of 108 to 110 °C. Moreover, the pIC50 in data set [1] is 7.15. Moreover, in data set [2] (setting [5]), the inhibition at 0.1 µM is 91% and the inhibition at 1 µM was 96%. Also, the inhibition at 100 µM in data set [3] (setting [4]) amounted to 36%.

`COc1ccc(Oc2c(-c3ccc(S(C)(=O)=O)cc3)cnn(-c3cccc(Cl)c3)c2=O)cc1` [Example 345, 2-(3-Chloroophenyl)-4-(4-methoxyphenoxy)-5-[4-(methylsulfonyl)phenyl]-3(2H)-pyridazinone]: the melting point was in the range of 182 to 184 °C. Further, the pIC50 in data set [1] was 7.52. In addition, the pIC50 in data set [2] is 6.62. In data set [3] (setting [4]), the inhibition at 100 µM was 0%.

Compound `CC(C)CSCc1c(-c2ccc(S(C)(=O)=O)cc2)cnn(-c2ccc(F)cc2)c1=O` [Example 198, 2-(4-Fluorophenyl)-4-(2-methylpropylthiomethyl)-5-[4-(methylsulfonyl)phenyl]-3(2H)-pyridazinone] registered a melting point of 45 to 60 °C. In addition, in data set [1], the negative logarithm of the IC50 (pIC50) was 6.74. In addition, in data set [2] (setting [5]), the inhibition at 0.1 µM stood at 23% and the inhibition at 1 µM was 68%. In addition, in data set [3] (setting [4]), the inhibition at 100 µM was 10%.

With `CC(C)CCCOc1c(-c2ccc(S(C)(=O)=O)cc2)cnn(-c2ccc(F)cc2)c1=O` [Example 414, 2-(4-Fluorophenyl)-4-(4-methylpentyloxy)-5-[4-(methylsulfonyl)phenyl]-3(2H)-pyridazinone], the melting point lay in the range of 123 to 125 °C. Also, in data set [1], the inhibition at 0.1 µM was determined as 46% and the inhibition at 1 µM was 54%. Moreover, in data set [2] (setting [5]), the inhibition at 0.1 µM amounted to 76% and the inhibition at 1 µM was 87%. In data set [3] (setting [4]), the inhibition at 100 µM came out at 0%.

`CS(=O)(=O)c1ccc(-c2cnn(C3CCc4ccccc43)c(=O)c2-c2ccc(F)cc2)cc1` (stereo not drawn) [Example 129, 2-(2,3-Dihydro-1H-inden-1-yl)-4-(4-fluorop,henyl)-5-[4-(methylsulfonyl)phenyl]-3(2H)-pyridazinone]: the melting point lay within 128 to 130 °C. The pIC50 in data set [1] is 7.40.

`CS(=O)(=O)c1ccc(-c2cnn(-c3ccc(F)c(F)c3)c(=O)c2Cc2ccc(F)cc2)cc1` [Example 171, 2-(3,4-Difluorophenyl)-4-(4-fluorobenzyl)-5-[4-(methylsulfonyl)phenyl]-3(2H)-pyridazinone] came in with a melting point of 157 to 159 °C. In data set [1], the inhibition at 0.1 µM was 56% and the inhibition at 1 µM stood at 90%. Moreover, in data set [2] (setting [5]), the inhibition at 0.1 µM stood at 61% and the inhibition at 1 µM stood at 74%. Further, the inhibition at 10 µM in data set [2] (10 μM, read-out: RHUCX2 % Inh. at Dose) stood at 82%. Also, the inhibition at 100 µM in data set [3] (setting [4]) was found to be 0%.

On to `CC(C)=CCCOc1c(-c2ccc(S(N)(=O)=O)cc2)cnn(-c2ccc(F)c(F)c2)c1=O` [Example 410], for which the pIC50 in data set [1] is 7.28. For the same compound, the entries for the “RHUCX2 % Inh. at Dose (μM)” value in data set [2] (0.017 μM) and in data set [2] (0.035 μM) were 47 @ 0.017% and 67 @0 .035%, respectively. Also, the “RHUCX1 % Inh. at Dose (μM)” value in data set [3] (10 μM) is 1 @ 10%; in data set [3] (100 μM), 48 @ 100%.

Regarding `COC(Cn1ncc(-c2ccc(S(C)(=O)=O)cc2)c(-c2ccc(F)cc2)c1=O)c1ccccc1` (stereo not drawn) [Example 442, 2-(2-Methoxy-2-phenylethyl)-4-(4-fluorophenyl)-5-[4-(methylsulfonyl)phenyl]-3(2H)-pyridazinone], the melting point is 135 to 137 °C. For the same compound, in data set [1], the negative logarithm of the IC50 (pIC50) is 6.38. For the same compound, in data set [2] (0.01 μM, read-out: RHUCX2 % Inh. at Dose), the inhibition at 0.01 µM worked out at 56%. The inhibition at 0.1 µM in data set [2] (setting [5]) was 90%. For the same compound, the inhibition at 100 µM in data set [3] (setting [4]) was 55%.

For the compound `CS(=O)(=O)c1ccc(-c2cnn(Cc3ccccc3)c(=O)c2-c2cccc([N+](=O)[O-])c2)cc1` [Example 321, 2-Benzyl-4-(3-nitrophenyl)-5-[4-(methylsulfonyl)phenyl]-3(2H)-pyridazinone], in data set [1] (0.01 μM), the inhibition at 0.01 µM stood at 50%. Moreover, the pIC50 in data set [2] is 6.72. Besides, the inhibition at 100 µM in data set [3] (setting [4]) is 4%.

Compound `CS(=O)(=O)c1ccc(-c2cnn(CC(F)(F)F)c(=O)c2OCc2ccco2)cc1` [Example 271, 2-(2,2,2-Trifluoroethyl)-4-(2-furylmethoxy)-5-[4-(methylsulfonyl)phenyl]-3(2H)-pyridazinone] displayed a melting point of 113 to 115 °C. Besides, in data set [1], the inhibition at 0.1 µM stood at 15% and the inhibition at 1 µM is 52%.

`NS(=O)(=O)c1ccc(-c2cnn(Cc3cc(F)c(F)cc3F)c(=O)c2-c2ccc(F)cc2)cc1` [Example 152, 2-(2,4,5-Trifluorobenzyl)-4-(4-fluorophenyl)-5-[4-(aminosulfonyl)phenyl]-3(2H)-pyridazinone]: the melting point was 236 to 238 °C. Moreover, in data set [1], the pIC50 is 7.54.

`CC(C)Oc1c(-c2ccc(S(C)(=O)=O)cc2)cnn(-c2cccc(Br)c2)c1=O` [Example 203, 2-(3-Bromophenyl)-4-(2-propoxy)-5-[4-(methylsulfonyl)phenyl]-3(2H)-pyridazinone] gave a melting point of 130 to 132 °C. Also, in data set [1], the inhibition at 0.1 µM was determined as 23% and the inhibition at 1 µM stood at 77%.

In the case of `CS(=O)(=O)c1ccc(-c2cnn(-c3ccc(Cl)cc3F)c(=O)c2-c2ccc(F)cc2)cc1` [Example 191, 2-(4-Chloro-2-fluorophenyl)-4-(4-fluorophenyl)-5-[4-(methylsulfonyl)phenyl]-3(2H)-pyridazinone], the melting point was in the range of 250 to 260 °C. For the same compound, the pIC50 in data set [1] was 7.22.

As to `CS(=O)(=O)c1ccc(-c2cnn(Cc3ccccc3)c(=O)c2-c2ccc(C(F)(F)F)cc2)cc1` [Example 323, 2-Benzyl-4-(4-trifluormethylphenyl)-5-[4-(methylsulfonyl)phenyl]-3(2H)-pyridazinone], the “Wish % Inhib. at Dose (μM)” value in data set [1] (0.01 μM) is reported as 57 @ 0.01%. Moreover, the pIC50 in data set [2] is 6.44. For the same compound, the “RHUCX1 % Inh. at Dose (μM)” value in data set [3] (100 μM) is given as 1 @ 100%.

`CS(=O)(=O)c1ccc(-c2cnn(-c3ccc(F)c(Cl)c3)c(=O)c2-c2ccc(Cl)cc2)cc1` [Example 102, 2-(3-Chloro-4-fluorophenyl)-4-(4-chlorophenyl)-5-[4-(methylsulfonyl)phenyl]-3(2H)-pyridazinone] showed a melting point of 205 °C. Besides, in data set [1], the pIC50 was 7.30.

`C=Cc1cccc(-n2ncc(-c3ccc(S(C)(=O)=O)cc3)c(-c3ccc(F)cc3)c2=O)c1` [Example 162, 2-(3-Vinylphenyl)-4-(4-fluorophenyl)-5-[4-(methylsulfonyl)phenyl]-3(2H)-pyridazinone] had a melting point of 182 to 183 °C. In addition, in data set [1], the pIC50 is 7.47.
